The values that follow come from BindingDB's records for doi:10.1016/s0960-894x(03)00020-9 (Seoul National University, 2003).

The first test deals with Isoleucine--tRNA ligase (Escherichia coli) (UniProt P00956). In words: Inhibitory activity against Escherichia coli Isoleucyl-tRNA synthetase was determined.
Chain of Isoleucine--tRNA ligase (Escherichia coli) (P00956 whole entry, looked up): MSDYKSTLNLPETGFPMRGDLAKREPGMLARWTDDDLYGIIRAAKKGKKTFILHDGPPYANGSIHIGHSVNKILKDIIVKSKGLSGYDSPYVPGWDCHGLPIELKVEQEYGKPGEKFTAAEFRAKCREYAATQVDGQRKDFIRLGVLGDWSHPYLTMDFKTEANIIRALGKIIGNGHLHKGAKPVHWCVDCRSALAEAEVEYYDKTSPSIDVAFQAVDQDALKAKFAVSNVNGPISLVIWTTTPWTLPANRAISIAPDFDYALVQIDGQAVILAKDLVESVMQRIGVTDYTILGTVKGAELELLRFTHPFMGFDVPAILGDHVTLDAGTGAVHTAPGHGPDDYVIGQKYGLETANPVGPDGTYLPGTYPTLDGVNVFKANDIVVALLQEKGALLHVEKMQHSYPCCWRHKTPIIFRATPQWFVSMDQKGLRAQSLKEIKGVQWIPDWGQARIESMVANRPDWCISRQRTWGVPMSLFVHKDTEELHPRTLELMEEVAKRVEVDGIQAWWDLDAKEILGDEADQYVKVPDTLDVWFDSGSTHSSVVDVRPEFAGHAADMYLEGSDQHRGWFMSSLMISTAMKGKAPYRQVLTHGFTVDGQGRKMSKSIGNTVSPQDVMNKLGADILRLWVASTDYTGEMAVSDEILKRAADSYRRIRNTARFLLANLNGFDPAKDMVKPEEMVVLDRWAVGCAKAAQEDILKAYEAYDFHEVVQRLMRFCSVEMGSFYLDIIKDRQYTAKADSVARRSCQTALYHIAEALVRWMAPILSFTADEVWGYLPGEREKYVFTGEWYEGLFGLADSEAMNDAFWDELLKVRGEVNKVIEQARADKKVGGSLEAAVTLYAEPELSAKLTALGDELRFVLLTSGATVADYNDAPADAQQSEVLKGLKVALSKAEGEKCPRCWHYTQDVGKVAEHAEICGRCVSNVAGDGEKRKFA
In the case of `CC[C@H](C)[C@H](N)C(=O)NS(=O)(=O)NOC[C@H]1OC(n2cnc3c(N)ncnc32)[C@H](O)[C@@H]1O` (stereo partly specified), 12.8 µM corresponded to half-maximal inhibition (IC50). Still for that read-out and setting: as for `CC[C@H](C)[C@H](N)C(=O)NS(=O)(=O)OC[C@H]1OC(n2cnc3c(N)nc(Cl)nc32)[C@H](O)[C@@H]1O` (stereo partly specified), the figure is 5.5 µM.

For `CC[C@H](C)[C@H](N)C(=O)NS(=O)(=O)N(O)C[C@H]1OC(n2cnc3c(N)ncnc32)[C@H](O)[C@@H]1O` (stereo partly specified), the IC50 (in general, the concentration that inhibits the measured activity by half) came to 132 µM. Same read-out and setting: under `CC[C@H](C)[C@H](N)C(=O)NS(=O)(=O)OC[C@H]1OC(n2cnc3c(NC)nc(I)nc32)[C@H](O)[C@@H]1O` (stereo partly specified) stands 22.2 µM; under `CCCCC#Cc1nc(N)c2ncn(C3O[C@H](COS(=O)(=O)NC(=O)[C@@H](N)[C@@H](C)CC)[C@@H](O)[C@H]3O)c2n1` (stereo partly specified), 1.1 µM. Take `CC[C@H](C)[C@H](N)C(=O)NS(=O)(=O)OC[C@H]1OC(n2cnc3c(N)nc(I)nc32)[C@H](O)[C@@H]1O` (stereo partly specified): the IC50 is 0.014 µM. Same read-out and setting: as for `C#Cc1nc(N)c2ncn(C3O[C@H](COS(=O)(=O)NC(=O)[C@@H](N)[C@@H](C)CC)[C@@H](O)[C@H]3O)c2n1` (stereo partly specified), the figure is 0.039 µM.

Another test shares this target. The description is as above. This is another data set of the same source.
Consider `CC[C@H](C)[C@H](N)C(=O)NS(=O)(=O)OC[C@H]1O[C@@H](n2cnc3c(N)ncnc32)[C@H](O)[C@@H]1O`, for which it took 0.098 µM to reach half-maximal inhibition (IC50).

For another test, the target named is Methionine--tRNA ligase (Escherichia coli) (UniProt P00959). In words: Inhibitory activity against Escherichia coli Methionyl-tRNA synthetase was determined.
Chain of Methionine--tRNA ligase (Escherichia coli) (P00959 whole entry, looked up): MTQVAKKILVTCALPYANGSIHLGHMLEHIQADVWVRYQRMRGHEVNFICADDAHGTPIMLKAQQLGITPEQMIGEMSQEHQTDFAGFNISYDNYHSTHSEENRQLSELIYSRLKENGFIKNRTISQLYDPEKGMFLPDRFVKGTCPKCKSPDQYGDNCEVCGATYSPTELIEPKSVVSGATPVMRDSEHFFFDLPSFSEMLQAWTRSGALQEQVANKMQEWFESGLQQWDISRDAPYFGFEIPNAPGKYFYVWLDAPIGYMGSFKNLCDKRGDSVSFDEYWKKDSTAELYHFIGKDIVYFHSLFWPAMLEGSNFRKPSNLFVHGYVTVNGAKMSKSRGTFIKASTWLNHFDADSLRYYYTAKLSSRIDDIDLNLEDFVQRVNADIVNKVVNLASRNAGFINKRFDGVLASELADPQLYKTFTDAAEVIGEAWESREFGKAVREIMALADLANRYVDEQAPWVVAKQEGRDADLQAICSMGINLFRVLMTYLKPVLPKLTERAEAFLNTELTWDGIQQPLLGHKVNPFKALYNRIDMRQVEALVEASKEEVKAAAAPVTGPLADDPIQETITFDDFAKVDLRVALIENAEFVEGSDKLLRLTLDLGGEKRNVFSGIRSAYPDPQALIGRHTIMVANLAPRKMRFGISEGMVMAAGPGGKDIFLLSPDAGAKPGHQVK
Compound `CCCCC#Cc1nc(N)c2ncn(C3O[C@H](COS(=O)(=O)NC(=O)[C@@H](N)CCSC)[C@@H](O)[C@H]3O)c2n1` (stereo partly specified) came in with an IC50 of 1.9 µM.

`C#Cc1nc(N)c2ncn(C3O[C@H](COS(=O)(=O)NC(=O)[C@@H](N)CCSC)[C@@H](O)[C@H]3O)c2n1` (stereo partly specified) came in with an IC50 of 1.1 µM. The compound `CSCC[C@H](N)C(=O)NS(=O)(=O)N(O)C[C@H]1OC(n2cnc3c(N)ncnc32)[C@H](O)[C@@H]1O` (stereo partly specified) yielded an IC50 of 106 µM. `CSCC[C@H](N)C(=O)NS(=O)(=O)NOC[C@H]1OC(n2cnc3c(N)ncnc32)[C@H](O)[C@@H]1O` (stereo partly specified): the IC50 came to 19.7 µM. Same read-out and setting: under `CNc1nc(I)nc2c1ncn2C1O[C@H](COS(=O)(=O)NC(=O)[C@@H](N)CCSC)[C@@H](O)[C@H]1O` (stereo partly specified) stands 191 µM. The same measure, in the same setting: under `CSCC[C@H](N)C(=O)NS(=O)(=O)OC[C@H]1OC(n2cnc3c(N)nc(Cl)nc32)[C@H](O)[C@@H]1O` (stereo partly specified) stands 7.4 µM. For the compound `CSCC[C@H](N)C(=O)NS(=O)(=O)OC[C@H]1OC(n2cnc3c(N)nc(I)nc32)[C@H](O)[C@@H]1O` (stereo partly specified), the IC50 is 1.2 µM.

The next test shares this target. The test is described as above. The source holds these as a separate data set.
In the case of `CSCC[C@H](N)C(=O)NS(=O)(=O)OC[C@H]1O[C@@H](n2cnc3c(N)ncnc32)[C@H](O)[C@@H]1O`, the IC50 worked out at 0.007 µM.
